Values after ≈ are worked out from the molar mass of the structure shown.
How the values were obtained:
[1] = Solubility of the compound; assay type: physicochemical
[2] = molecular target: Serine/threonine-protein kinase PLK1 (Homo sapiens) (UniProt P53350); assay: Inhibition of human recombinant N-terminal GST-tagged Plk1 at 250 uM
Serine/threonine-protein kinase PLK1 (Homo sapiens), sequence (P53350 whole entry): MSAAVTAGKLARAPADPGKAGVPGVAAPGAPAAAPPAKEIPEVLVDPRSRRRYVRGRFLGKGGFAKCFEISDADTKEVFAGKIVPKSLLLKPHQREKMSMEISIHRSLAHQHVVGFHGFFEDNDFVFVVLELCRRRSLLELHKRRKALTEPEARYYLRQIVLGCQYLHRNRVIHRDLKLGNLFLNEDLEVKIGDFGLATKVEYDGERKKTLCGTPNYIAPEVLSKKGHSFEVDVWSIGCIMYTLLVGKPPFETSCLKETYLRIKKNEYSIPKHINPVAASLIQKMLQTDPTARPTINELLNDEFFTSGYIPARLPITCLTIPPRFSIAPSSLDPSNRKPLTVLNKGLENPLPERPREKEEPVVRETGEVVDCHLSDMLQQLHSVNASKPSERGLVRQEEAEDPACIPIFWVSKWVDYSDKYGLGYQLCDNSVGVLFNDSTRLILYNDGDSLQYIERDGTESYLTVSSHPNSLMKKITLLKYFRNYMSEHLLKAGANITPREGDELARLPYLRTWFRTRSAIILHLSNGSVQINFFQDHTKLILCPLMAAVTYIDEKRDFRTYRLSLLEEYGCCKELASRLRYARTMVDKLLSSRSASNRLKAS

Compound	solubility [1]	inhibition [2]
Cc1cc(-c2ccc(C#N)cc2)c(OCCO)c(-c2ccc(C#N)cc2)c1	100 µM (≈ 35.4 µg/mL)	
CNC(=O)Cc1ccc(-c2cc(C)cc(-c3ccc(CC(=O)NC)cc3)c2OCCO)cc1		0%

Source: ChEMBL document CHEMBL2321874, “Small-molecular, non-peptide, non-ATP-competitive polo-like kinase 1 (Plk1) inhibitors with a terphenyl skeleton” (Bioorg Med Chem, 2013)
